Laboratory results reported in paper PMC11881016, “Deep‐Learning‐Based Approaches for Rational Design of Stapled Peptides With High Antimicrobial Activity and Stability” (Microbial Biotechnology, 2025).
Values after ≈ are worked out from the molar mass of the structure shown. *1 amine or outer side, *2 acyl side, *3 side chain or, on linkers, in order; H or OH if unused. Where a SMILES comes first, the peptide text is derived from it. Bridges are numbered along the chain shown (N, C = ends). Where no end group is shown, it is not given here. [ ]: non-standard residue; d: D form. X1 = O=C([C@H](CCCCNCC=[*:3])N[*:1])[*:2]

Key:
any bacteria = assay: Wet experiment result (antimicrobial activity of the synthesised peptides, positive/negative); format: cell-based; details: experiment data set (Supplement S12)
Source text: Supplement MBT2-18-e70121-s002.doc, table 9 | column: Wet Exp. Result

[1] = test system: Escherichia coli (E. coli, ATCC25922); format: cell-based
Protocol: (§1) Escherichia coli ( E. coli , ATCC25922), Klebsiella pneumoniae ( K. pneumoniae , ATCC10031), Staphylococcus aureus ( S. aureus , ATCC6538P), Pseudomonas aeruginosa ( P. aeruginosa , ATCC27853) and methicillin‐resistant Staphylococcus aureus (MRSA) were used to evaluate the antimicrobial activity of the peptides and were purchased from BeNa Culture Collection.
(§2) The MICs of the peptides in vitro were determined using the broth microdilution method with minor modifications (Wiegand et al. [2008]). Peptides were incubated with bacteria (about 5 × 10^5 CFU/mL), and PBS was used as the negative control. After 18–24 h of incubation at 37°C, the bacteria were checked for growth by recording the values at OD600, with three replicates in each group.

[2] = test system: Pseudomonas aeruginosa (P. aeruginosa, ATCC27853); format: cell-based
Protocol: as §1, §2

[3] = test system: Klebsiella pneumoniae (K. pneumoniae, ATCC10031); format: cell-based; details: for MIC K. pneumoniae: ATCC10031; for increase of antimicrobial activity against K. pneumoniae: stapled peptide compared to its linear peptide
Protocol: as §1, §2

[4] = test system: Staphylococcus aureus (S. aureus, ATCC6538P); format: cell-based; details: for MIC S. aureus: ATCC6538; for increase of antimicrobial activity against S. aureus: stapled peptide compared to its linear peptide
Protocol: as §1, §2

[5] = test system: methicillin‐resistant Staphylococcus aureus (MRSA); format: cell-based; details: for MIC MRSA: methicillin‐resistant; for increase of antibacterial activity against MRSA: stapled peptide compared to its linear peptide
Protocol: as §1, §2

[6] = test system: gram‐positive and gram‐negative bacteria; details: external independent data set; ref Hu et al. ([2022]); cited from earlier work
Source text: TABLE 3 Prediction results of external independent data set using 10 models. | column: Result ^a

Molecule	Wet Exp. Result (any bacteria)	MIC E. coli [1]	MIC P. aeruginosa [2]	MIC K. pneumoniae [3]	increase of antimicrobial activity against K. pneumoniae [3]	MIC S. aureus [4]	increase of antimicrobial activity against S. aureus [4]	MIC MRSA [5]	increase of antibacterial activity against MRSA [5]	Result (stapled AMP with high antimicrobial activity in the experiment) [6]
CC[C@H](C)[C@H](NC(=O)[C@@H](N)CCCNC(=N)N)C(=O)N[C@@H](CC(C)C)C(=O)N[C@@H](CCCNC(=N)N)C(=O)N[C@@H](CCCCN)C(=O)N[C@@H](CC(C)C)C(=O)N[C@@H](CCCNC(=N)N)C(=O)N[C@H]1CCCCNC/C=C/CNCCCC[C@@H](C(=O)O)NC(=O)[C@H](CC(C)C)NC(=O)[C@H](Cc2ccccc2)NC(=O)[C@H](CCCCN)NC1=O [GAN‐P2‐2‐St] (H-RILRKLR[X1]KFL[X1]-OH; staple (E) 8-12)	Positive	16 µg/mL (≈ 9.69 µM)	32 µg/mL (≈ 19.4 µM)	1 µg/mL (≈ 0.606 µM)	2–4 fold	2 µg/mL (≈ 1.21 µM)	4 fold	8 µg/mL (≈ 4.85 µM)	16 fold	–
CC[C@H](C)[C@H](NC(=O)[C@@H](N)CCCNC(=N)N)C(=O)N[C@@H](CC(C)C)C(=O)N[C@@H](CCCNC(=N)N)C(=O)N[C@@H](CCCCN)C(=O)N[C@@H](CC(C)C)C(=O)N[C@@H](CCCCN)C(=O)N[C@H]1CCCCNC/C=C/CNCCCC[C@@H](C(=O)O)NC(=O)[C@H](CC(C)C)NC(=O)[C@H](Cc2ccccc2)NC(=O)[C@H](CCCNC(=N)N)NC1=O [GAN‐P2‐3‐St] (H-RILRKLK[X1]RFL[X1]-OH; staple (E) 8-12)	Positive	16 µg/mL (≈ 9.69 µM)	32 µg/mL (≈ 19.4 µM)	1 µg/mL (≈ 0.606 µM)	2–4 fold	2 µg/mL (≈ 1.21 µM)	4 fold	8 µg/mL (≈ 4.85 µM)	16 fold	–
CC[C@H](C)[C@H](NC(=O)[C@@H](N)CCCNC(=N)N)C(=O)N[C@@H](CC(C)C)C(=O)N[C@@H](CCCNC(=N)N)C(=O)N[C@@H](CCCCN)C(=O)N[C@@H](CC(C)C)C(=O)N[C@@H](CCCNC(=N)N)C(=O)N[C@H]1CCCCNC/C=C/CNCCCC[C@@H](C(=O)O)NC(=O)[C@H](CC(C)C)NC(=O)[C@H](Cc2ccccc2)NC(=O)[C@H](CCCNC(=N)N)NC1=O [GAN‐P2‐4‐St] (H-RILRKLR[X1]RFL[X1]-OH; staple (E) 8-12)	Positive	16 µg/mL (≈ 9.53 µM)	16 µg/mL (≈ 9.53 µM)	2 µg/mL (≈ 1.19 µM)	2–4 fold	4 µg/mL (≈ 2.38 µM)	–	16 µg/mL (≈ 9.53 µM)	4 fold	–
CC[C@H](C)[C@H](NC(=O)CN)C(=O)NCC(=O)N[C@@H](CCCCN)C(=O)N[C@@H](Cc1ccccc1)C(=O)N[C@@H](CC(C)C)C(=O)N[C@@H](Cc1c[nH]cn1)C(=O)N[C@@H](CO)C(=O)N[C@@H](C)C(=O)N[C@@H](CCCCN)C(=O)N[C@@H](CCCCN)C(=O)N[C@@H](Cc1ccccc1)C(=O)NCC(=O)N[C@@H](CCCCN)C(=O)N[C@H]1CSSC[C@@H](C(=O)N[C@H](C(=O)N[C@@H](CC(C)C)C(=O)N[C@@H](CC(N)=O)C(=O)N[C@@H](CO)C(=O)O)[C@@H](C)CC)NC(=O)CNC(=O)[C@H](C(C)C)NC(=O)[C@H](Cc2ccccc2)NC1=O [Mag2(i + 4)14Dc] (H-GIGKFLHSAKKFGKCFVGCILNS-OH; disulfide 15-19)	–	64 µg/mL	64 µg/mL	32 µg/mL	–	16 µg/mL	–	–	–	–
CC[C@H](C)[C@H](NC(=O)CN)C(=O)NCC(=O)N[C@@H](CCCCN)C(=O)N[C@@H](Cc1ccccc1)C(=O)N[C@@H](CC(C)C)C(=O)N[C@@H](Cc1c[nH]cn1)C(=O)N[C@@H](CO)C(=O)N[C@@H](C)C(=O)N[C@@H](CCCCN)C(=O)N[C@@H](CCCCN)C(=O)N[C@@H](Cc1ccccc1)C(=O)NCC(=O)N[C@@H](CCCCN)C(=O)N[C@@H](C)C(=O)N[C@H]1CSSC[C@@H](C(=O)N[C@@H](CC(C)C)C(=O)N[C@@H](CC(N)=O)C(=O)N[C@@H](CO)C(=O)O)NC(=O)[C@H](CCC(=O)O)NC(=O)CNC(=O)[C@H](C(C)C)NC1=O [Mag2(i + 4)15Dc] (H-GIGKFLHSAKKFGKACVGECLNS-OH; disulfide 16-20)	–	512 µg/mL	> 512 µg/mL	256 µg/mL	–	> 512 µg/mL	–	–	–	–
CC[C@H](C)[C@H](NC(=O)[C@H](CCCNC(=N)N)NC(=O)[C@H](CCCCN)NC(=O)[C@@H](N)Cc1c[nH]c2ccccc12)C(=O)N[C@@H](C)C(=O)N[C@H]1CCCCNC/C=C/CNCCCC[C@@H](C(=O)N[C@@H](CCCCN)C(=O)N[C@@H](CC(C)C)C(=O)NCC(=O)N[C@@H](CCCNC(=N)N)C(=O)N[C@@H](C)C(=O)N[C@@H](CCCCN)C(=O)N[C@@H](CC(C)C)C(=O)N[C@@H](Cc2ccccc2)C(=O)O)NC(=O)[C@H](CCCCN)NC(=O)[C@H](CC(C)C)NC(=O)[C@H](CCCNC(=N)N)NC1=O [VAE‐P3‐3‐St] (H-WKRIA[X1]RLK[X1]KLGRAKLF-OH; staple (E) 6-10)	Positive	16 µg/mL (≈ 6.98 µM)	16 µg/mL (≈ 6.98 µM)	1 µg/mL (≈ 0.436 µM)	2–4 fold	4 µg/mL (≈ 1.74 µM)	–	4 µg/mL (≈ 1.74 µM)	4 fold	–
FFGKVLⓀLIRⓀIF‐NH2 (sidechain bridge or staple) [LS‐DAS, lysine‐stapled AMP of the external independent data set from Hu et al. ([2022])]	–	–	–	–	–	–	–	–	–	Positive
FFGSVLⓀLIPⓀIL‐NH2 (sidechain bridge or staple) [LS‐PTa, lysine‐stapled AMP of the external independent data set from Hu et al. ([2022])]	–	–	–	–	–	–	–	–	–	Positive
GFKDLLKGAAⓀALVⓀTVLF‐NH2 (sidechain bridge or staple) [LS‐AP1, lysine‐stapled AMP of the external independent data set from Hu et al. ([2022])]	–	–	–	–	–	–	–	–	–	Positive
GFKDLLⓀGAAⓀALVKTVLF‐NH2 (sidechain bridge or staple) [LS‐AP2, lysine‐stapled AMP of the external independent data set from Hu et al. ([2022])]	–	–	–	–	–	–	–	–	–	Positive
GFⓀDLLⓀGAAKALVKTVLF‐NH2 (sidechain bridge or staple) [LS‐AP3, lysine‐stapled AMP of the external independent data set from Hu et al. ([2022])]	–	–	–	–	–	–	–	–	–	Positive
PKINLⓀILGⓀILRLAAAFK‐NH2 (sidechain bridge or staple) [LS‐PaD1, lysine‐stapled AMP of the external independent data set from Hu et al. ([2022])]	–	–	–	–	–	–	–	–	–	Positive
PⓀINLⓀILGKILRLAAAFK‐NH2 (sidechain bridge or staple) [LS‐PaD2, lysine‐stapled AMP of the external independent data set from Hu et al. ([2022])]	–	–	–	–	–	–	–	–	–	Positive
RILRKLKKRFLK [GAN‐P2‐3]	–	16 µg/mL	32 µg/mL	4 µg/mL	–	8 µg/mL	–	128 µg/mL	–	–
RILRKLRKKFLK [GAN‐P2‐2]	–	8 µg/mL	16 µg/mL	4 µg/mL	–	8 µg/mL	–	128 µg/mL	–	–
RILRKLRKRFLK [GAN‐P2‐4]	–	8 µg/mL	32 µg/mL	4 µg/mL	–	8 µg/mL	–	64 µg/mL	–	–
VKRFKⓀFFRⓀFKKFV‐NH2 (sidechain bridge or staple) [LS‐BF1, lysine‐stapled AMP of the external independent data set from Hu et al. ([2022])]	–	–	–	–	–	–	–	–	–	Positive
VⓀRFKⓀFFRKFKKFV‐NH2 (sidechain bridge or staple) [LS‐BF2, lysine‐stapled AMP of the external independent data set from Hu et al. ([2022])]	–	–	–	–	–	–	–	–	–	Positive
WKRIAKRLKKKLGRAKLF [VAE‐P3‐3]	–	16 µg/mL	16 µg/mL	2 µg/mL	–	4 µg/mL	–	16 µg/mL	–	–
WKRIARKLKRKLGRAKLF [VAE‐P3‐5]	–	16 µg/mL	4 µg/mL	1 µg/mL	–	2 µg/mL	–	8 µg/mL	–	–
